We go through one compound from EP4755396A1, “TREATMENT OF P53 GENE MUTATION OR DEFECT NEGATIVE CANCER AND TUMOR PATIENTS” (Ascentawits Pharmaceuticals, Ltd., priority 2023, dated 2025).

Each structure is given as a SMILES string. Where “and” joins values, the source holds several entries; their conditions need not be identical. Equal entries are not always repeated.

This experiment deals with liver cancer. Nature of the experiment: Phase II clinical trial of AST-3424 (CTR20191399). The experiment is classed as in vivo, human. From the text: The clinical trial registration number is CTR20191399.
• 1. Male or female, aged ≥18 years old. • 2. Histopathologically confirmed advanced HCC that cannot be controlled by surgical resection or local therapy. • 3. History of prior standard systemic therapy including, but not limited to, Sorafenib and/or Oxaliplatin-based systemic chemotherapy, Lenvatinib, Regorafenib and/or Nivolumab, who have experienced disease progression, toxicity intolerance, or refusal to continue treatment with these drugs. • 4. At least one measurable lesion meeting RECIST 1.1 criteria. A lesion with a history of prior radiation therapy shall not be regarded as the measurable lesion unless a definite radiological progression is observed after radiation therapy. • 5. […] Eastern Cooperative Oncology Group (ECOG) performance status score of 0 or 1. • 7. Expected survival time ≥ 12 weeks. • 8. With or without HBV or HCV infection. a. For subjects with HBV infection, HBV-DNA level shall be <2,000 IU/ml, and antiviral therapy with entecavir, tenofovir disoproxil fumarate, or tenofovir alafenamide fumarate shall be administered according to the national guidelines for the prevention and treatment of chronic hepatitis B. The therapy shall be maintained during the study and continued for 6 months after the last dose of the study drug. b. For subjects with HCV infection (in the presence of detectable HCV-RNA or anti-HCV antibodies), treatment may be conducted according to medical practice. • 9. Child-Pugh score ≤ 6 points. • 10. No history of hepatic encephalopathy. • 11. Prior to the initiation of the study drug, all toxicities from previous anticancer therapies (except alopecia, fatigue, or peripheral neuropathy) shall have returned to Grade 1 or baseline levels (NCI CTCAE Version 5). • 12. Subject's laboratory tests shall meet the following criteria. During 14 days before screening laboratory tests, no correction of indicators by blood transfusion, hematopoietic growth factor infusion or albumin infusion is allowed to meet the inclusion criteria: a. Hemoglobin ≥ 90 g/L; b. Platelet count ≥ 80 × 10^9/L; c. Absolute neutrophil count (ANC) ≥ 1.5 × 10^9/L; d. Serum total bilirubin ≤ 3 mg/dL; E. ALT and AST ≤ 5.0 × ULN; f. International normalized ratio (INR) ≤ 2.3 or prothrombin time prolongation ≤ 6 seconds; g. Albumin ≥ 29 g/L; h. Creatinine clearance > 50 mL/min as measured according to the Cockcroft-Gault equation. • 13. No history of alcohol, drug or substance abuse within the past year. • 14. Fertile female subjects shall be in non-lactating and have a negative pregnancy test result within 5 days prior to the initiation of treatment (the subject with a positive urine pregnancy test result needs to be reconfirmed by a serum pregnancy test). • 15. Fertile female and male subjects shall agree to use effective contraceptive measures (e.g. surgical sterilization or condom or diaphragm contraception combined with spermicidal gel or intrauterine contraceptive device [IUD], etc.) with their partners from the start of study participation until 6 months after the last dose of the study drug. • 16. Voluntary participation in this study, fully understanding of the relevant risks, good compliance, and signing the informed consent. Subjects may also sign an informed consent form for future biomedical research (FBR). However, the subjects who would not participate in FBR are still allowed participate in the main trial.
• 1. Untreated active central nervous system (CNS) metastases or leptomeningeal disease. Subjects with CNS metastases that have been adequately treated and confirmed to be stable for at least 4 weeks during screening by clinical tests and brain imaging (MRI or CT) are allowed to participate in the study. • 2. […]

The mark [1] stands for this setting: 8 subjects who completed efficacy evaluation, liver cancer, 6 mg/m^2 day 1 and day 8 of 21-day cycle, as of July 21, 2023.
Setting [2] is: subgroup of 4 cases negative (-) for p53 gene mutation or defect, liver cancer, 6 mg/m^2 day 1 and day 8 of 21-day cycle, as of July 21, 2023.

On to `C[C@H](OP(=O)(N1CC1)N1CC1)c1ccc([N+](=O)[O-])c(Oc2cccc(C(=O)N(C)C)c2)c1` [AST-3424], for which the “overall DCR” value (8 evaluated liver cancer subjects, 6 mg/m^2 day 1 and day 8 of 21-day cycle, as of July 21, 2023) is 75%. For the same compound, under setting [1], the “subjects achieved PD” value is recorded as 25%, the “subjects achieved PR” value amounted to 12.5% and the “subjects achieved SD” value is recorded as 62.5%. The compound also gave an ORR (overall, 8 evaluated liver cancer subjects, 6 mg/m^2 day 1 and day 8 of 21-day cycle, as of July 21, 2023) of 12.5%. Also, for the setting “per case, 3 subjects with positive P53 mutation, unclear in whether it affects protein expression (VUS) (Table 10), as of March 11, 2024”, the Efficacy evaluation result is recorded as “SD, lesion increase”. For the same compound, the PFS (per case, 8 P53 mutation-positive (MUT) subjects (Table 8), 6 mg/m^2 day 1 and day 8 of 21-day cycle, as of March 11, 2024) is 1.4 months and 1.6 months and 1.5 months and 1.2 months. Besides, under setting [2], the DCR is on record as 75% and the ORR was 25%. The DCR (subgroup of 4 cases positive (+) for p53 gene mutation or defect, liver cancer, 6 mg/m^2 day 1 and day 8 of 21-day cycle, as of July 21, 2023) is reported as 75%.
